This note sets out measurements from publication PMC5585294, “A potent series targeting the malarial cGMP-dependent protein kinase clears infection and blocks transmission” (Nature Communications, 2017).

Where two headings read alike, the source gives them in different places.

For one series, the system named is P. falciparum 3D7. The series can be described thus: Hypoxanthine incorporation growth inhibition assay, asexual blood stage, wild-type 3D7. The series is classed as cell-based, Plasmodium falciparum. The settings on record: 3D7 asexual blood stage growth, 72 h, +/- s.e.m.; for EC50: read-out: EC50 WT. As for the experimental part: Hypoxanthine incorporation assays[36] were performed on P. falciparum asexual blood stage parasites (wild-type 3D7 or T618Q gatekeeper mutant) to determine EC50 values for test compounds. Mixed staged parasites (primarily rings) were added to 96 well plates containing compounds at concentrations of 50 μM–0.3 nM. […] Assays were carried out in triplicate at least twice.

A short description of the next series: in vivo. The following applies: NOD-scid IL-2Rγc-null, mouse, po. As for the experimental part: The blood samples were immediately lysed by mixing with 25 μl of distilled water, frozen on dry ice and stored at −80 °C until analysis. The compounds were extracted from 10 μl of each lysate by liquid–liquid extraction in the MultiScreen Solvinert 0.45 μm Hydrophobic PTFE 96-well plate system (Millipore) and stored frozen at −80 °C until analysis by LC/MS/MS in API4000 (AB Sciex, Framingham, MA). The compound concentration vs. time data were analyzed by non-compartmental analysis using Phoenix® Version 6.3 (Pharsight Corporation, Mountain View, CA, USA). Additional statistical analysis was performed with GraphPad Prism® Version 6.02 (GraphPad Software Inc, San Diego CA, USA).

Series [1] relates to P. falciparum gatekeeper mutant (T618Q) stage V gametocytes. The series can be described thus: Gametogenesis (rounding up) assay, T618Q stage V gametocytes. It is filed as cell-based, Plasmodium falciparum. The following applies: 30 µM xanthurenic acid; 2 µM ML1, 1 µM ML10.
In a further series the target is T1, human MLK3 (Homo sapiens, UniProt Q16584).
T1 construct: Protein Phosphorylation Unit, Dundee (screening site)
The series can be described thus: Human kinase panel single point screen, MLK3. It is filed as biochemical. The following applies: at 100 nM; highest level of inhibition in the panel. The source says: The results are expressed as % inhibition of kinase activity.
(1 picture or pasted object on this page, not shown here)

Series [2] in a line: Cytotoxicity assay (ATP depletion), HT-29. It is filed as cell-based. The settings on record: human, HT-29 colorectal adenocarcinoma cells, 0.001–10 µM, n = 6. On the procedure:
A549 (lung carcinoma; ATCC, Ref. ATCC® CCL-185™), plated at 7.5×10^3 cells/well; HT-29 (colorectal adenocarcinoma; ATCC, Ref. ATCC® HTB-38™), plated at 7.5×10^3 cells/well; and MCF7 (breast adenocarcinoma; ATCC, Ref. ATCC® HTB-22™), plated at 9× 10^3 cells/well, were placed into clear bottom, opaque 96 well plates in cell line-specific medium and allowed to attach overnight. […] FCS, 1× GlutaMAX™ Supplement (Life Technologies, 35050061) and 50 units/ml penicillin and 50 µg/ml streptomycin for 48 h. Six independent assays were performed for each line and were carried out by CXR Biosciences Ltd. End point for cytotoxicity assessment was carried out using an ATP depletion kit (CellTiter-Glo Luminescent Cell Viability Assay for ATP quantitation (Promega, Cat # G7572)). Results expressed relative to the 0.1% DMSO control. Unpaired Student’s t-tests were performed using GraphPad Prism software (7.0).

A short description of a further series: physchem. The following applies: pH 7.4. On the procedure:
Compound mlm hlm mLogD PAMPA HepG2 name (%rem) (%rem) (nm/s) (IC50 µM)
Supplementary Table 2. Compound Properties. MLM, HLM, mLogD and PAMPA . mlm (%rem): % of compound remaining after 30 minutes’ incubation with mouse liver microsomes; hlm (%rem): % of compound remaining after 40 minutes’ incubation with human liver microsomes; mLogD: measured LogD at pH 7.4; PAMPA: parallel artificial membrane permeability assay; HepG2: Cytotoxicity assay using HepG2 cells; n.t.: not tested.

Series [3] relates to P. falciparum strain 3D7A. The series can be described thus: In vitro parasite reduction rate (PRR) assay. The settings on record: 10× EC50.
Procedure: The assay used the limiting dilution technique to quantify the number of parasites that remained viable after drug treatment. […] To quantify the number of viable parasites after treatment, threefold serial dilutions were used with the above-mentioned samples after removing the drug. Four independent serial dilutions were performed with each sample to correct experimental variations. The number of viable parasites was determined after 21 and 28 days by counting the number of wells with growth using [^3H]-hypoxanthine incorporation. The number of viable parasites was back-calculated by using the formula X ^n-1 where n is the number of wells able to render growth and X the dilution factor (when n = 0, number of viable parasites is estimated as zero).

T1 sequence (Q16584 whole entry): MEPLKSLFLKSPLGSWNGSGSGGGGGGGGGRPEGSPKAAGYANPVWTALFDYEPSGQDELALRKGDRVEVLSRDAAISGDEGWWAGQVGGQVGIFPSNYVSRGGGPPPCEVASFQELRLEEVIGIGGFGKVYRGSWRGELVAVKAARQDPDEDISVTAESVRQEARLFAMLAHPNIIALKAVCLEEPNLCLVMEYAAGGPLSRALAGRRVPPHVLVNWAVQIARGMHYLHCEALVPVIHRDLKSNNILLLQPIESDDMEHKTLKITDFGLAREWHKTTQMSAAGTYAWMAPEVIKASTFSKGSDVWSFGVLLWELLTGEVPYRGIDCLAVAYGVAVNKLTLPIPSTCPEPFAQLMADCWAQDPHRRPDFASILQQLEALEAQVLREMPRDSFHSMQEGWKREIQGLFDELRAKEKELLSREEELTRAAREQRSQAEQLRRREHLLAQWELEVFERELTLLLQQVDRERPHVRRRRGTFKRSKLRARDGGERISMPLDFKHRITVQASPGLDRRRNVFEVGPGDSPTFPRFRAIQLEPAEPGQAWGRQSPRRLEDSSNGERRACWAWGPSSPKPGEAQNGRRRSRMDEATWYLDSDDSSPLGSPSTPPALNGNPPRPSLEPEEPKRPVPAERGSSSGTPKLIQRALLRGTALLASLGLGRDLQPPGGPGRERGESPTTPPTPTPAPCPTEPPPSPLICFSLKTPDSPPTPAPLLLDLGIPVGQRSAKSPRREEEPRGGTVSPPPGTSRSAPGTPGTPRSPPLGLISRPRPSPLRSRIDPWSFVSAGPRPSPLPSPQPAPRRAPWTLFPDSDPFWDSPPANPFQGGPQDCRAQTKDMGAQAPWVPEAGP

For the molecule `Cc1cn2c(-c3ccnc(NCC4CC4)n3)c(-c3ccc(F)c(NS(C)(=O)=O)c3)nc2cc1CN(C)C` [ML10], the EC50 in the series with P. falciparum 3D7 was 2.1 nM; with P. falciparum 3D7 (Plasmodium falciparum, 3D7, 72 h), roughly 2 nM. Moreover, in the series on P. falciparum 3D7 (Plasmodium falciparum), it took 4.5 nM to reach the 90% level (EC90). In addition, the values for the half-life in the series “in vivo” (50 mg/kg) and in the series “in vivo” (100 mg/kg) were 8.7 h and 17 h, respectively. Moreover, in series [1], the “rounding up of T618Q gametocytes” value is on record as “insensitive”. This molecule also gave an inhibition at 0.1 µM against human MLK3 of 40%. The molecule further yielded an EC50 at 48 h in series [2] greater than 10000 nM. This molecule gave a logD in the series “physchem” of 2.8. Further, in series [3], the “lag before killing (effects reversible following wash-out)” value is reported as “about 24 h”.

The EC50 is the concentration needed to bring the measured effect to its halfway point. By EC90 is commonly meant the point of the concentration-response curve where the effect stands at 90%. The term half-life denotes the time in which the quantity being followed falls by half. A low value points to rapid decline. Usually inhibition stands for how much of the control response was suppressed. A higher inhibition goes with strong suppression. The term logD denotes lipophilicity at a set pH, counting ionised and neutral species. Low readings indicate a more hydrophilic compound, high ones a more lipophilic compound.
